The text below walks through data of US20240147991A1, “Diphenyl Tablets and Methods of Preparing the Same” (Ideaz, LLC, priority 2018, published 2024).

A short description of the data set: Evaluation of sublimation of diphenyl tablets versus granules exposed to air. In kind it is physicochemical. As to conditions: 22 days; 1.06 grams substance at start; empty tray 1 3.715 grams (tablets), empty tray 2 3.650 grams (granules). An excerpt: Two trays were fashioned from equal sized sheets of aluminum foil and tape. The trays were each weighed after fashioning, with tray 1 weighing 3.715 grams and tray 2 weighing 3.650 grams (a weight difference between trays of 0.065 grams). Two compressed diphenyl tablets handled with tweezers were first weighed at a total weight of 1.06 grams and then placed into tray 1. An equal amount of diphenyl granules (i.e., having a total weight of 1.06 grams) was spooned into tray 2.
Both trays were exposed to air over 22 days and re-weighed. Tray 1 weighed 4.45 grams and tray 2 weighed 3.99 grams. After adjusting the weight difference of the trays by subtracting 0.065 grams from tray 1, it can be seen that the diphenyl tablets sublimed at a slower rate than the diphenyl granules by retaining 8.88 weight % more than the granules after being exposed to air for 22 days.

Each structure is given as a SMILES string.

Consider `c1ccc(-c2ccccc2)cc1` [diphenyl granules, diphenyl], for which the “Weight of tray with substance after exposure to air” value stood at 3.99 grams.
